In the NIST ThermoML archive (doi:10.1016/j.jct.2008.07.009):

Assay: xn = mol fraction of the nth substance listed
Settings: 101 kPa, Liquid, Vibrating tube method

CC(=O)N1CCOCC1 [4-acetylmorpholine] + CCc1ccccc1
mass density [kg/m3]
Settings	293.15 K	303.15 K	313.15 K	323.15 K	333.15 K	343.15 K
x2 = 0.0456	1102.4	1094.5	1085.9	1077.3	1068.9	1060.3
x2 = 0.1256	1082.6	1074.7	1066.2	1057.7	1049.2	1040.6
x2 = 0.1853	1068	1060	1051.5	1042.9	1034.3	1025.7
x2 = 0.2457	1053.2	1045.2	1036.6	1027.9	1019.4	1010.6
x2 = 0.2984	1040.5	1032.4	1023.7	1015	1006.3	997.5
x2 = 0.3486	1028.3	1020.1	1011.4	1002.6	993.8	985
x2 = 0.3899	1018.3	1010	1001.2	992.4	983.6	974.7
x2 = 0.4452	1004.8	996.5	987.7	978.9	969.9	960.9
x2 = 0.4843	995.3	986.9	978	969.2	960.2	951.2
x2 = 0.5433	980.8	972.3	963.5	954.6	945.6	936.6
x2 = 0.5894	969.5	961	952.1	943.2	934.2	925.2
x2 = 0.6555	953.2	944.7	935.8	926.9	917.8	908.8
x2 = 0.6983	942.6	934	925.1	916.2	907.2	898.3
x2 = 0.7452	931	922.4	913.5	904.6	895.6	886.6
x2 = 0.7984	917.7	909	900.2	891.2	882.3	873.4
x2 = 0.8422	906.7	898	889.3	880.4	871.4	862.4
x2 = 0.9328	884.2	875.5	866.7	857.8	848.7	839.7
x2 = 0.9784	872.8	864.1	855.2	846.2	837.1	828

CC(=O)N1CCOCC1 [4-acetylmorpholine] + Cc1cc(C)cc(C)c1
mass density [kg/m3]
Settings	293.15 K	303.15 K	313.15 K	323.15 K	333.15 K	343.15 K
x2 = 0.0654	1094.6	1086.8	1077.7	1069.3	1060.8	1052.2
x2 = 0.1128	1081.2	1073.4	1063.8	1055.4	1046.9	1038.5
x2 = 0.1763	1063.5	1055.7	1045.7	1037.3	1028.9	1020.4
x2 = 0.2254	1050.2	1042.3	1032	1023.5	1015.1	1006.7
x2 = 0.2845	1034.5	1026.5	1015.8	1007.4	999	990.6
x2 = 0.3241	1024.2	1016.2	1005.2	996.8	988.4	980
x2 = 0.3837	1008.9	1000.9	989.5	981	972.7	964.3
x2 = 0.4266	998.1	990.1	978.3	969.9	961.6	953.2
x2 = 0.4978	980.4	972.3	960.2	951.9	943.5	935.2
x2 = 0.5436	969.2	961.1	948.8	940.4	932.1	923.8
x2 = 0.6116	952.8	944.8	932.1	923.9	915.6	907.3
x2 = 0.6984	932.5	924.4	911.4	903.1	894.9	886.8
x2 = 0.7452	921.6	913.6	900.4	892.2	884	875.9
x2 = 0.7944	910.4	902.3	888.9	880.8	872.7	864.6
x2 = 0.8541	897	889	875.4	867.2	859.1	851
x2 = 0.8932	888.3	880.2	866.5	858.4	850.3	842.2
x2 = 0.9423	877.5	869.5	855.6	847.5	839.4	831.3
x2 = 0.9833	868.7	860.6	846.5	838.5	830.4	822.3
